According to ChEMBL document CHEMBL4811280, “Discovery of a simplified deguelin analog as an HSP90 C-terminal inhibitor for HER2-positive breast cancer” (Bioorg Med Chem Lett, 2021):

Assays:
BT-474 [1] = assay: Antiproliferative activity against trastuzumab-sensitive HER2-positive human BT-474 cells assessed as reduction in cell viability after 72 hrs by MTS assay; type: functional, cell-based; conditions: dose 0.1-20 µM
Heat shock protein HSP90 [2] = target: T1, Heat shock protein HSP90 (Homo sapiens, UniProt P07900+P08238); assay: Inhibition of HSP90 at C-terminus in trastuzumab-sensitive human BT-474 cells assessed as downregulation of cyclinD1 protein expression incubated for 72 hrs by Western blot analysis; type: cell-based; conditions: dose 2-10 µM
Heat shock protein HSP90 [3] = target: T1, Heat shock protein HSP90; assay: Inhibition of HSP90 at C-terminus in trastuzumab-resistant human […] cells assessed as downregulation of HER2 protein expression incubated for 72 hrs by Western blot analysis; type: cell-based; conditions: JIMT-1, dose 2-10 µM
Heat shock protein HSP90 [4] = target: T1, Heat shock protein HSP90; assay: Inhibition of HSP90 at C-terminus in trastuzumab-sensitive human BT-474 cells assessed as downregulation of Akt protein expression incubated for 72 hrs by Western blot analysis; type: cell-based; conditions: dose 2-10 µM
Heat shock protein HSP90 [5] = target: T1, Heat shock protein HSP90; assay: Inhibition of HSP90 at C-terminus in trastuzumab-sensitive human BT-474 cells assessed as downregulation of HER2 protein expression incubated for 72 hrs by Western blot analysis; type: cell-based; conditions: dose 2-10 µM
Heat shock protein HSP90 [6] = target: T1, Heat shock protein HSP90; assay: Inhibition of HSP90 at C-terminus in trastuzumab-resistant human […] cells assessed as downregulation of Akt protein expression incubated for 72 hrs by Western blot analysis; type: cell-based; conditions: JIMT-1, dose 2-10 µM
Heat shock protein HSP90 [7] = target: T1, Heat shock protein HSP90; assay: Inhibition of HSP90 at C-terminus in trastuzumab-sensitive human BT-474 cells assessed as downregulation of survivin protein expression incubated for 72 hrs by Western blot analysis; type: cell-based; conditions: dose 2-10 µM
Heat shock protein HSP90 [8] = target: T1, Heat shock protein HSP90; assay: Inhibition of HSP90 at N-terminus in human BT-474 cells assessed as increase in nuclear HSF1 protein level at 10 uM incubated for 24 hrs by immunostaining analysis; type: cell-based; conditions: bt-474, 24 h
Heat shock protein HSP90 [9] = target: T1, Heat shock protein HSP90; assay: Inhibition of HSP90 at N-terminus in human BT-474 cells assessed as increase in cytosolic HSP90 protein level at 10 uM incubated for 24 hrs by immunostaining analysis; type: cell-based; conditions: bt-474, 24 h
Heat shock protein HSP90 [10] = target: T1, Heat shock protein HSP90; assay: Inhibition of HSP90 at C-terminus in trastuzumab-resistant human […] cells assessed as downregulation of survivin protein expression incubated for 72 hrs by Western blot analysis; type: cell-based; conditions: JIMT-1, dose 2-10 µM
SK-BR-3 = assay: Antiproliferative activity against trastuzumab-sensitive human SK-BR-3 cells assessed as reduction in cell viability after 72 hrs by MTS assay; type: functional, cell-based; conditions: dose 0.1-20 µM
HEK293 = assay: Cytotoxicity against human HEK293 cells assessed as reduction in cell viability at 10 uM after 72 hrs by MTS assay; type: cell-based; conditions: hek293, 72 h
Heat shock protein HSP90 [11] = target: T1, Heat shock protein HSP90; assay: Inhibition of HSP90 at C-terminus in trastuzumab-resistant human […] cells assessed as downregulation of cyclinD1 protein expression incubated for 72 hrs by Western blot analysis; type: cell-based; conditions: JIMT-1, dose 2-10 µM
JIMT-1 [12] = assay: Antiproliferative activity against trastuzumab-resistant HER2-positive human JIMT-1 cells assessed as cell viability at 10 uM after 72 hrs by MTS assay; type: functional; conditions: read-out: Activity
JIMT-1 [13] = assay: Antiproliferative activity against trastuzumab-resistant HER2-positive human JIMT-1 cells assessed as reduction in cell viability after 72 hrs by MTS assay; type: functional, cell-based; conditions: dose 0.1-20 µM
MDA-MB-453 = assay: Antiproliferative activity against trastuzumab-resistant human MDA-MB-453 cells assessed as reduction in cell viability after 72 hrs by MTS assay; type: functional, cell-based; conditions: dose 0.1-20 µM
BT-474 [14] = assay: Antiproliferative activity against trastuzumab-sensitive HER2-positive human BT-474 cells assessed as cell viability at 10 uM after 72 hrs by MTS assay; type: functional; conditions: read-out: Activity

- inhibition (Heat shock protein HSP90 [2]): Dose-Dependent Effect
- inhibition (Heat shock protein HSP90 [3]): Dose-Dependent Effect
- inhibition (Heat shock protein HSP90 [4]): Dose-Dependent Effect
- inhibition (Heat shock protein HSP90 [5]): Dose-Dependent Effect
- inhibition (Heat shock protein HSP90 [6]): Dose-Dependent Effect
- inhibition (INH) (Heat shock protein HSP90 [8]): Not Active
- inhibition (INH) (Heat shock protein HSP90 [9]): Not Active
- inhibition (Heat shock protein HSP90 [11]): Dose-Dependent Effect
SMILES: COc1cc2c(C(OC(=O)C3CC3)c3ccc4c(c3OC)C=CC(C)(C)O4)ccnc2cc1OCCCN1CCN(C)CC1 (configuration not stated)
- Activity (BT-474 [1]): Dose-Dependent Effect
- inhibition (Heat shock protein HSP90 [7]): Dose-Dependent Effect
- inhibition (Heat shock protein HSP90 [10]): Dose-Dependent Effect
- Activity (SK-BR-3): Dose-Dependent Effect
- Activity (HEK293): Toxic
- viability at 10 µM (JIMT-1 [12]): < 20%
- Activity (JIMT-1 [13]): Dose-Dependent Effect
- Activity (MDA-MB-453): Dose-Dependent Effect
- viability at 10 µM (BT-474 [14]): < 20%
